# What was measured:
# Format in all cases: cell-based, human
# [1] = system: K48-polyubiquitinated proteins in A549 cells; assay: Western blot of K48-polyubiquitinated proteins; details: EBSS plus BTZ (10 μM), 2 h or 24 h
# Experimental: The cells were plated in 12-well plates at 1×10^5 density and incubated for 24 h. […] Total protein concentration was determined by pierce BCA protein assay kit (Thermo Fischer Scientific, #23225). Equal amounts of proteins were loaded. SDS-PAGE electrophoresis was utilized to separate proteins, which were subsequently transferred to a nitrocellulose membrane through the wet transfer system. The membranes were blocked with 5% BSA in TBST at room temperature for 1 h and incubated with indicated primary antibodies overnight under 4° C. After washed with TBST, the blots were incubated with secondary antibodies for 1 h at room temperature. After washed with TBST three times, the proteins blots were visualized by Clarity Western ECL Substrate (BioRad) and captured by ChemiDoc Imaging System (BioRad). The following antibodies were used: K48-polyubiquitinated proteins (Cell signaling technology, #8081), p-S6K (Cell signaling technology, #9234), S6K (Cell signaling technology, #2708), mTOR (Cell signaling technology, #2983), β-Actin (Cell signaling technology, #4967), SQSTM1 (Abcam, ab91526), HRP-conjugated secondary antibody (Abcam, ab6789), HRP-conjugated secondary antibody (Abcam, ab6721).
# proteasome = assay: Proteasome activity probe (Me4BodipyFL-Ahx3Leu3VS) flow cytometry; details: A549 cells, EBSS plus BTZ (10 μM), 4 h, vs EBSS
# Experimental: The cells were seeded in 12-well plates at 1×10^5 density. Unless explained, the cells were incubated with FITC-BSA (0.2 mg/mL), DQ-BSA (10 μg/mL), or Me4BodipyFL-Ahx3Leu3VS (1 μM) for 4 h for protein internalization, extracellular protein degradation, and proteasome activity analysis, respectively. TMR-Dextran (0.125 mg/mL) was applied for 1 h as a macropinocytosis marker. After washing with PBS three times, the cells were harvested and analyzed by Agilent NovoCyte Quanteon analyzer.
# A549 cells [2] = assay: DQ-BSA internalization and degradation analysis
# Experimental: For in vitro fluorescent imaging detection, the cells were seeded on Nunc glass bottom confocal dishes (Thermo Fischer Scientific, USA) for 24 h. […] TMR-Dextran (0.125 mg/mL) was applied for 1 h as a macropinocytosis marker. Subsequently, after washed with PBS three times, the cells were fixed in 3.7% paraformaldehyde solution in PBS for 10 min, followed by washing with PBS three times and staining with DAPI according to the protocol (Thermo Fischer Scientific, D1306). After washing with PBS three times, the cells were mounted with SlowFade Diamond Antifade Mountant (Thermo Fischer Scientific, S36963). The in vivo TUNEL assay was conducted using the one-step TUNEL assay kit ([…], Beyotime, China). The Zeiss LSM 900 inverted confocal microscope equipped with 10×0.45 NA, 20×0.8 NA and 40×1.4 NA lens was employed to analyze intracellular fluorescent signals. The same exposure settings were used across all conditions in each individual experiment. The cells were seeded in 12-well plates at 1×10^5 density. Unless explained, the cells were incubated with FITC-BSA (0.2 mg/mL), DQ-BSA (10 μg/mL), or Me4BodipyFL-Ahx3Leu3VS (1 μM) for 4 h for protein internalization, extracellular protein degradation, and proteasome activity analysis, respectively. […] After washing with PBS three times, the cells were harvested and analyzed by Agilent NovoCyte Quanteon analyzer.
# A549 cells [3] = assay: Cytotoxicity assay (MTT); details: BTZ (20 μM), EBSS vs DMEM, 24 h
# Experimental: The cells were seeded in 96-well plates and cultured for 24 h. To investigate the influence of starvation on BTZ treatment, the cells were incubated with BTZ (20 μM) or DMSO, in complete DMEM or EBSS medium for 24 h. To investigate the combination effect of EIPA and BTZ, the cells were treated with a series of concentration of EIPA and BTZ in EBSS (plus 3% BSA) medium for 24 h. 10 μL of MTT (5 mg/mL) were added into each well and incubated for 2-4 h. Then the supernatant was changed with 100 μL DMSO to dissolve the precipitate. Subsequently, the absorbance of the solution at 570 nm and 630 nm was measured by a microplate reader (SpectraMax M4, Molecular Devices LLC, San Jose, CA). The cell viability was calculated by OD570-OD630 and normalized to DMSO control group.
# A549 cells [4] = assay: FITC-BSA protein internalization
# Experimental: (§1) For in vitro fluorescent imaging detection, the cells were seeded on Nunc glass bottom confocal dishes (Thermo Fischer Scientific, USA) for 24 h. Unless explained, the cells were incubated with FITC-BSA (0.2 mg/mL), BSA-AF647 (0.05 mg/mL), or DQ-BSA (10 μg/mL) for 4 h for protein internalization and extracellular protein degradation analysis, respectively. TMR-Dextran (0.125 mg/mL) was applied for 1 h as a macropinocytosis marker. Subsequently, after washed with PBS three times, the cells were fixed in 3.7% paraformaldehyde solution in PBS for 10 min, followed by washing with PBS three times and staining with DAPI according to the protocol (Thermo Fischer Scientific, D1306). After washing with PBS three times, the cells were mounted with SlowFade Diamond Antifade Mountant (Thermo Fischer Scientific, S36963). The in vivo TUNEL assay was conducted using the one-step TUNEL assay kit (C1088, Beyotime, China). The Zeiss LSM 900 inverted confocal microscope equipped with 10×0.45 NA, 20×0.8 NA and 40×1.4 NA lens was employed to analyze intracellular fluorescent signals. The same exposure settings were used across all conditions in each individual experiment.
# (§2) The cells were seeded in 12-well plates at 1×10^5 density. […] After washing with PBS three times, the cells were harvested and analyzed by Agilent NovoCyte Quanteon analyzer.
# A549 cells [5] = assay: mCherry-GFP-LC3 reporter and BSA-AF647 internalization (CLSM); details: EBSS plus BTZ, 4 h, vs starved cells
# Experimental: as §1, with “experiment. […]” for “experiment.”
# SQSTM1 = assay: Western blot of SQSTM1; details: A549 cells, EBSS plus BSA medium, 4 h
# Experimental: The cells were plated in 12-well plates at 1×10^5 density and incubated for 24 h. Subsequently, the cells received indicated treatments for 4 h and the cells were washed with 1×PBS three times and harvested with RIPA buffer (supplemented with Halt protease and phosphatase inhibitor cocktail, Thermo Fischer Scientific, USA). Total protein concentration was determined by pierce BCA protein assay kit (Thermo Fischer Scientific, #23225). Equal amounts of proteins were loaded. SDS-PAGE electrophoresis was utilized to separate proteins, which were subsequently transferred to a nitrocellulose membrane through the wet transfer system. The membranes were blocked with 5% BSA in TBST at room temperature for 1 h and incubated with indicated primary antibodies overnight under 4° C. After washed with TBST, the blots were incubated with secondary antibodies for 1 h at room temperature. After washed with TBST three times, the proteins blots were visualized by Clarity Western ECL Substrate (BioRad) and captured by ChemiDoc Imaging System (BioRad). […]
# A549 cells [6] = assay: TMR-Dextran internalization (macropinocytosis marker); details: EBSS plus EIPA (50 μM, pretreated 1 h before)
# Experimental: as §1, §2
SMILES,level of K48-polyubiquitinated proteins [1],fluorescence intensity of proteasome probe (proteasome activity) (proteasome),"fluorescence intensity of DQ-BSA (internalized protein degradation) (A549 cells [2]; A549 cells, EBSS plus BTZ (10 μM), 4 h, vs EBSS)",cell viability (A549 cells [3]),"FITC-BSA protein internalization (A549 cells [4]; EBSS plus BTZ, 4 h)",LC3 puncta (autophagy flux) (A549 cells [5]),percentage of BSA-AF647 colocalized with LC3 puncta (A549 cells [5]),SQSTM1 expression level (SQSTM1),"fluorescence intensity of DQ-BSA (intracellular protein degradation) (A549 cells [2]; A549 cells pre-incubated with DQ-BSA 1 h, then EBSS with 3% BSA plus EIPA 3 h, vs starvation group)",TMR-Dextran internalization (macropinocytosis) (A549 cells [6]),"starvation-amplified FITC-BSA uptake (A549 cells [4]; EBSS plus EIPA (50 μM, pretreated 1 h before), 1 h)"
"CC(C)C[C@H](NC(=O)[C@H](Cc1ccccc1)NC(=O)c1cnccn1)B(O)O [BTZ, bortezomib]",profound accumulation of polyubiquitinated proteins,remarkably reversed,substantially decreased,much more significant decrease of cell viability in starved cancer cells,further increased protein internalization,further enhanced,increased the percentage of BSA-AF647 colocalized with LC3 puncta,exacerbated starvation-induced SQSTM1 decrease,,,
"CCN(c1nc(N)c(C(=O)N=C(N)N)nc1Cl)C(C)C [EIPA, 5-(n-ethyl-n-isopropyl)-amiloride]",,,,,,,,,further increased the fluorescence intensity of DQ-BSA,inhibited,notably blocked
